A short description of data set [1]: Apparent permeability across apical to basolateral side in human Caco2 cells. The class given is ADME, cell-based. Particulars: Caco-2. (In general: Caco-2 cells form a polarised layer with tight junctions and transporters.)
Data set [2] can be described thus: Volume of distribution at steady state in iv dosed rat. The class given is ADME, organism-based. The note with it: in vivo, read-out: Vdss.
The nature of data set [3]: Oral bioavailability in mouse at 10 mg/kg. The class given is ADME, organism-based. Particulars: in vivo.
A short description of data set [4]: Oral bioavailability in dog at 10 mg/kg. The class given is ADME, organism-based, Canis lupus familiaris. The note with it: in vivo.
Data set [5] is described as follows: Oral bioavailability in rat at 10 mg/kg. The class given is ADME, organism-based. Particulars: in vivo.

A word on the Papp A→B: it is the apparent permeability from the apical to the basolateral side of a cell layer. Take `CC1(C)[C@@H](O)C[C@H]1Nc1nc(NCc2cncnc2OCC(F)F)ncc1C#N`: the apparent permeability from apical to basolateral (Papp A→B) in data set [1] worked out at 11 ×10⁻⁶ cm/s.

For the compound `CC1(C)CC(Nc2cc(NCc3cnccc3C(F)(F)F)ncc2C#N)CC(C)(C)N1`, the Vd in data set [2] stood at 27.7 L/kg.

In general, bioavailability refers to dose-corrected exposure relative to a reference, in per cent. The low end stands for poor availability, the high end for good availability. Regarding `CC(F)(F)COc1ncncc1CNc1ncc(C#N)c(N[C@@H]2CC[C@H](O)C(C)(C)C2)n1`, in data set [1], the apical-to-basolateral permeability (Papp A→B) is 27 ×10⁻⁶ cm/s. Moreover, the results for the bioavailability in data set [3], in data set [4] and in data set [5] were 17%, 46% and 66%, respectively.

`CC(C)(F)c1ncncc1CNc1ncc(C#N)c(N[C@@H]2C[C@H](O)C2(C)C)n1`: the Papp A→B in data set [1] is 36 ×10⁻⁶ cm/s.

These data come from ChEMBL document CHEMBL4825732, “Discovery of the Selective Protein Kinase C-θ Kinase Inhibitor, CC-90005” (J Med Chem, 2021).
